In one test the target is T1, 5-HT2A receptor (Rattus norvegicus, UniProt P14842).
T1 construct: the tissue used is the frontal cortex of the rat; from tissue; host or cells: rat frontal cortex
In words: In vitro radioligand binding affinity for 5-HT2A receptor (3H-ketanserin, frontal cortex). The note with it: test concentration of 10^-7 M, frontal cortex of the rat. The protocol:
(§1) The interaction of the compounds of formula (I) with 5-HT2A and 5-HT2C receptors was assessed in in vitro radioligand binding experiments. In general, a low concentration of a radioligand with a high binding affinity for the receptor is incubated with a sample of a tissue preparation enriched in a particular receptor (1 to 5 mg tissue) in a buffered medium (0.2 to 5 ml). During the incubation, the radioligands bind to the receptor. When equilibrium of binding is reached, the receptor bound radioactivity is separated from the non-bound radioactivity, and the receptor bound activity is counted. The interaction of the test compounds with the receptors is assessed in competition binding experiments. Various concentrations of the test compound are added to the incubating mixture containing the tissue preparation and the radioligand. Binding of the radioligand will be inhibited by the test compound in proportion to its binding affinity and its concentration. The radioligand used for 5-HT2A binding affinity is ^3 H-ketanserin and the tissue used is the frontal cortex of the rat. […] The radioligand used for 5-HT2C binding affinity is ^3 H-mesulergine and the tissue used is the choroid plexus of the pig.

A further test deals with T2, 5-HT2C receptor (Sus scrofa, UniProt K7GSR7).
T2 construct: the tissue used is the choroid plexus of the pig; from tissue; host or cells: pig choroid plexus
T2 sequence (K7GSR7 1-457): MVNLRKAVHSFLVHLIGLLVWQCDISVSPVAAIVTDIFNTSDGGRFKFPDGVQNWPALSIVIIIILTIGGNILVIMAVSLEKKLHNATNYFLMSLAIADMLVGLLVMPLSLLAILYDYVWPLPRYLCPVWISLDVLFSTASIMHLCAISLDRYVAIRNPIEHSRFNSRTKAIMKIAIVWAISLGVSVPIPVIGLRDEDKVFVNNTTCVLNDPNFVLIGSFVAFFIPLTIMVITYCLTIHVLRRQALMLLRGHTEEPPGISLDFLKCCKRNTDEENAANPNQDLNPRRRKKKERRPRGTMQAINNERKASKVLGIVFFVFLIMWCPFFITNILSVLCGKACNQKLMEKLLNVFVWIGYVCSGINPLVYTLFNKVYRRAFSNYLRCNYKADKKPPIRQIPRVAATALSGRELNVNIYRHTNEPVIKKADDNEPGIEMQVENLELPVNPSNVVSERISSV
Nature of the test: In vitro radioligand binding affinity for 5-HT2C receptor (3H-mesulergine, choroid plexus). The note with it: test concentration of 10^-7 M, choroid plexus of the pig. The protocol:
as §1

The subject of test [1] is mCPP (metachlorophenylpiperazine) induced effects. Nature of the test: mCPP Test on Rats. The format is in vivo, rat. Particulars: pre-test time T of 1 hour, 1 mg/kg mCPP intravenously 15 minutes prior to the test, Open Field Test; for ED40: Rattus norvegicus, iv, read-out: active dose (dose at which 40% of the tested rats showed suppression of the mCPP induced effects, i.e. mCPP-antagonism). The protocol: Rats were treated with the test compound at a dose varying between 0.0025 mg/kg and 40 mg/kg body weight at a pre-test time T of 1 hour, and with 1 mg/kg mCPP (metachlorophenylpiperazine), injected intravenously, 15 minutes prior to the test. After pre-test time T elapsed, treated rats were submitted to the "Open Field Test on Rats" as described in Drug. Dev. Res. 18, 119-144 (1989), but using an infra-red light source instead of a Kleverlux® (12 V/20 W) light source. […] Compounds number 1, 2, 4 and 9 were active at a test dose of 2.5 mg/kg or less.

For test [2] the following is noted: dose of 300 mg/kg; cited from earlier work.

Structures can show the parent of a compound that is named as a salt. A value given as a limit tells only on which side of the number the result lay.

T1 sequence (P14842 whole entry): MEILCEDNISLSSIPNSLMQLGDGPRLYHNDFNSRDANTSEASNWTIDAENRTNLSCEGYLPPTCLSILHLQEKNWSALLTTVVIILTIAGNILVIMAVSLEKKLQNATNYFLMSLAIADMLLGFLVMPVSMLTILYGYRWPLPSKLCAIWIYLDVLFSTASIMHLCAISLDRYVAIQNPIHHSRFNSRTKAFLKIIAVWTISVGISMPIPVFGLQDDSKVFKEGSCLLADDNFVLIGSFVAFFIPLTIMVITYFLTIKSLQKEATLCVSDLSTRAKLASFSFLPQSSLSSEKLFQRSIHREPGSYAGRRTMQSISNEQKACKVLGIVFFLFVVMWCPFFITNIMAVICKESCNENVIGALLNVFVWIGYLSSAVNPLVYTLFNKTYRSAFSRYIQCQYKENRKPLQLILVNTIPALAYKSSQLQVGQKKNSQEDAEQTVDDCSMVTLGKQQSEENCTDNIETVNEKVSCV

In the case of `CN1CCN(CC2CC3c4ccccc4Cc4ccccc4C3O2)CC1` (stereo not shown) [Compound 5], the inhibition at 0.1 µM on 5-HT2A receptor and on 5-HT2C receptor was more than 40% each time.

Consider `Clc1cccc(N2CCN(CC3CC4c5ccccc5Cc5ccccc5C4O3)CC2)c1` (stereo not shown) [Compound 6], for which, at 5-HT2C receptor, the inhibition (as a rule, how much of the control response was suppressed) at 0.1 µM was more than 40%.

As for `CN(C)CC1CC2c3ccccc3Oc3ccccc3C2O1` (stereo not shown) [Compound 2], in test [1], the “active dose (dose at which 40% of the tested rats showed suppression of the mCPP induced effects, i.e. mCPP-antagonism)” value is not above 2.5 mg/kg. Moreover, the “inhibition of the 5-HT2C receptor” value on 5-HT2C receptor is “less than 40%”.

As to `CN(C)CC1CC2c3ccccc3Cc3ccccc3C2O1.Cl` (racemic) [Compound 4, (±)-3,3a,8,12b-tetrahydro-N,N-dimethyl-2H-dibenzo[3,4:6,7]cyclohepta[1,2-b]furan-2-methanamine hydrochloride (1:1)], the ED40 in test [1] is not above 2.5 mg/kg. The inhibition at 0.1 µM on 5-HT2A receptor and at 5-HT2C receptor was more than 40% in each case.

With `c1ccc2c(c1)Cc1ccccc1C1OC(CN3CCOCC3)CC21` (stereo not shown) [Compound 9], the ED40 in test [1] is not above 2.5 mg/kg. Moreover, the inhibition at 0.1 µM at 5-HT2A receptor and at 5-HT2C receptor was more than 40% throughout.

In the case of `CN(C)CC1CC2c3ccccc3Oc3ccccc3C2O1` (racemic) [Compound 1, (±)-2,3,3a,12b-tetrahydro-N,N-dimethyldibenzo[bf]furo[2,3-d]oxepin-2-methanamine], the ED40 in test [1] was not above 2.5 mg/kg. On 5-HT2C receptor, this compound had an inhibition at 0.1 µM of more than 40%.

Take `OCCN1CCN(CC2CC3c4ccccc4Cc4ccccc4C3O2)CC1` (racemic) [Compound 3, (±)-4-[(3,3a,8,12b-tetrahydro-2H-dibenzo[3,4:6,7]cyclohepta[1,2-b]furan-2-yl)methyl]-1-piperazineethanol dihydrochloride]: the inhibition at 0.1 µM at 5-HT2A receptor and at 5-HT2C receptor was more than 40% each time.

For `O=C(c1ccc(F)cc1)C1CCN(CC2CC3c4ccccc4Cc4ccccc4C3O2)CC1` (stereo not shown) [Compound 8], the inhibition at 0.1 µM on 5-HT2A receptor and on 5-HT2C receptor was more than 40% in each case.

In the case of `c1ccc(C2CCN(CC3CC4c5ccccc5Cc5ccccc5C4O3)CC2)cc1` (stereo not shown) [Compound 7], at 5-HT2C receptor, the inhibition at 0.1 µM was more than 40%.

Consider `CNCC1CC2c3ccccc3Cc3ccccc3C2O1.O=C(O)C(=O)O` (racemic) [(±)-3,3a,8,12b-tetrahydro-N-methyl-2H-dibenzo[3,4:6,7]-cyclohepta[1,2-b]furan-2-methanamine oxalic acid], for which the antidepressant activity entry in test [2] was “inactive”.
